Assay results reported in patent US8785424B2, “ngCycloartanone derivatives with anticancer activity” (Pierre Fabre Medicament, priority 2009, dated 2014).
Counter-ions that a name gives are not always drawn.

System: proteasome
Assay: Cellular proteasome inhibition test: accumulation of 4Ub-Luc reporter (luciferase activity) in DLD-1 4Ub-Luc cell line
Assay type: cell-based, human
Conditions: DLD-1 4Ub-Luc cells; for relative induction factor (IF % luminescence) versus epoxomicin: 8 hours, epoxomicin = 100%
Summary of the method: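 DLD-1 4Ub-Luc human colon cancer cells, which express a 4-ubiquitin–luciferase fusion that the proteasome degrades, were seeded into white 96-well plates (100 μl of 1·10^5 c/ml) and left to adhere for 24 hours. They were then treated, with 0.1% DMSO as solvent control and 10^−7 M epoxomicin as reference. Cells were rinsed with PBS, lysed in passive lysis buffer and frozen at −20° C. Luciferase activity was measured with a Promega kit at 20-25° C. Each induction factor versus solvent was expressed relative to epoxomicin, set at 100%.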

[1] = concentration tested 5 · 10^−6 M

CC(=O)O[C@H]1C[C@@]2(C)[C@@H]3CC[C@H]4[C@H](C)C(=O)C=C[C@@]45C[C@@]35CC[C@]2(C)[C@H]1[C@H](C)[C@@H](OC(C)=O)C12OCC(C)C1Cc1ccc(O)cc1O2 (some centres unmarked) [Compound 88, Neoboutomellerone Resorcinol Derivative]
relative induction factor (IF % luminescence) versus epoxomicin [1]: 47%
relative induction factor (IF % luminescence) versus epoxomicin (concentration tested 10^−5 M): 78%
relative induction factor (IF % luminescence) versus epoxomicin (concentration tested 10^−6 M): 1%

C=C(C(=O)[C@H](OC(C)=O)[C@@H](C)[C@H]1[C@@H](OC(C)=O)C[C@@]2(C)C3CCC4[C@H](C)C(=O)C=C[C@@]45C[C@@]35CC[C@]12C)[C@@H](C)COP(=O)(O)O (some centres unmarked) [Compound 89, 26-phosphate-neoboutomellerone]
relative induction factor (IF % luminescence) versus epoxomicin [1]: 3%
relative induction factor (IF % luminescence) versus epoxomicin (concentration tested 10^−5 M): 40%
relative induction factor (IF % luminescence) versus epoxomicin (concentration tested 10^−6 M): 1%

C=C(C(=O)[C@H](OC(C)=O)[C@@H](C)[C@H]1[C@@H](OC(C)=O)C[C@@]2(C)[C@@H]3CC[C@H]4[C@H](C)C(=O)C=C[C@@]45C[C@@]35CC[C@]12C)[C@@H](C)COP(=O)(O)O [Compound 90, 26-phosphate-neoboutomellerone N-methyl Glutamine Salt]
relative induction factor (IF % luminescence) versus epoxomicin [1]: 4%
relative induction factor (IF % luminescence) versus epoxomicin (concentration tested 10^−5 M): 51%
relative induction factor (IF % luminescence) versus epoxomicin (concentration tested 10^−6 M): 1%

C=C(C(=O)[C@H](OC(C)=O)[C@@H](C)[C@H]1[C@@H](OC(C)=O)C[C@@]2(C)C3CCC4[C@H](C)C(=O)C=C[C@@]45C[C@@]35CC[C@]12C)[C@@H](C)COP(=O)(OCC)OCC (some centres unmarked) [Compound 92, 26-(diethylphosphate)-neoboutomellerone]
relative induction factor (IF % luminescence) versus epoxomicin [1]: 16%
relative induction factor (IF % luminescence) versus epoxomicin (concentration tested 5 · 10^−7 M): 3%
relative induction factor (IF % luminescence) versus epoxomicin (concentration tested 10^−5 M): 2%
relative induction factor (IF % luminescence) versus epoxomicin (concentration tested 10^−6 M): 43%

CC[C@H](C)[C@H](NC(=O)[C@H]([C@@H](C)CC)N(C)C(C)=O)C(=O)N[C@H](C(=O)N[C@@H](CC(C)C)C(=O)[C@@]1(C)CO1)[C@@H](C)O [epoxomicin, reference compound]
induction factor of the reference (IF % luminescence) (reference molecule at 10^−7 M, set to IF=100%): 100%
